# Assay results reported in patent US9023789B2, “Amylin analogs and pharmaceutical compositions thereof” (Novo Nordisk A/S, priority 2012, dated 2015).
# Where two headings read alike, the source gives them in different places. Numbered stars: 1 amine (or outer) side, 2 acyl side, 3 side chain; on linkers, the order of the positions; unused ones are H or OH. Bridge positions count the residues as written; N and C are the ends. Side chains are listed from the residue outwards. Peptide text beside a SMILES is read from it. * marks the point of attachment. C20 diacid = O=C(O)CCCCCCCCCCCCCCCCCCC(=O)*; γGlu = O=C(O)[C@H](CCC(=O)[*:2])N[*:1]
# What was measured:
# [1] = ASSAY (IV) determination of solubility; format: physicochemical
# Method in brief: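 UPLC read-out of polypeptide concentration after centrifugation. Samples: aqueous polypeptide stock ([…]) + 100 mM buffer 1:1, glycylglycine pH 3.0–5.0 or bistrispropane pH 6.0–8.0; 18 h, RT.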
# [2] = biological target: T1, human calcitonin receptor (Homo sapiens, UniProt P30988); test: ASSAY (VII) binding to the human calcitonin receptor (SPA, 125I-Calcitonin); conditions: read-out: hCTR bind IC50;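 further: cell membranes (35 ng/µL) combined with SPA beads in 40 µL of pH 7.4 Hepes buffer, 384-well format, signal counted on a TopCounter instrument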
# T1 construct: expressed in transfected cells
# T1 sequence (P30988 25-474): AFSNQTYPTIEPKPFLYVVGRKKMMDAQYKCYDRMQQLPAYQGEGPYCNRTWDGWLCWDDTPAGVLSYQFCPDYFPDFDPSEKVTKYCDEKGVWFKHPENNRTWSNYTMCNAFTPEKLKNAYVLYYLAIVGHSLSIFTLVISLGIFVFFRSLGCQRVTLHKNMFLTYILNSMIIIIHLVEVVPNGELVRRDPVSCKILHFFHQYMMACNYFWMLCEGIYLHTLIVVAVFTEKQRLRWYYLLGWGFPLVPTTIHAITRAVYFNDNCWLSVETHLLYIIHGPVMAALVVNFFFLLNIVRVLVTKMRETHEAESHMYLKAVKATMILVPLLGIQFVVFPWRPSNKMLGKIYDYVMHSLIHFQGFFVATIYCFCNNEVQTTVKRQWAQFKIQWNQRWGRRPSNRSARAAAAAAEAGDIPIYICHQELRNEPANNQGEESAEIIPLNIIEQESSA
# [3] = biological target: T2, human calcitonin (a) receptor in BHK570 cells (Homo sapiens, UniProt P30988); test: ASSAY (II)a functional assay, human calcitonin receptor (CRE luciferase); format: cell-based; conditions: read-out: hCTR funct. EC50
# T2 construct: expressed in transfected cells
# T2 sequence (P30988 25-474): T1 sequence (P30988 25-474)
# Method in brief: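 Receptor activation is measured as cAMP-driven CRE-luciferase expression in BHK cells expressing the calcitonin receptor, with RAMP-3 co-expressed to form the amylin 3(a) receptor. Cells are exposed to compound for 3 hours at 37° C, and luciferase is then quantified by luminescence.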
# [4] = bistrispropane buffer, pH 6.5, read-out: Solubility pH 6.5 Concentration
# [5] = bistrispropane buffer, pH 7.5, read-out: Solubility pH 7.5 Concentration
# [6] = bistrispropane buffer, pH 6.0, read-out: Solubility pH 6.0 Concentration
# [7] = bistrispropane buffer, pH 7.0, read-out: Solubility pH 7.0 Concentration
# [8] = bistrispropane buffer, pH 8.0, read-out: Solubility pH 8.0 Concentration
# [9] = glycylglycine buffer, pH 3.0, read-out: Solubility pH 3.0 Concentration
# [10] = glycylglycine buffer, pH 4.0, read-out: Solubility pH 4.0 Concentration
# [11] = glycylglycine buffer, pH 5.0, read-out: Solubility pH 5.0 Concentration
"solubility at 18 h [1, 4] [µM]","solubility at 18 h [1, 5] [µM]","solubility at 18 h [1, 6] [µM]","solubility at 18 h [1, 7] [µM]","solubility at 18 h [1, 8] [µM]","solubility at 18 h [1, 9] [µM]","solubility at 18 h [1, 10] [µM]","solubility at 18 h [1, 11] [µM]",IC50 [2] [nM],EC50 [3] [nM],Structure (SMILES)
≥ 200,≥ 200,≥ 200,≥ 200,≥ 200,≥ 200,≥ 200,≥ 200,12.5,2.03,CC[C@H](C)[C@H](NC(=O)[C@H](C)NC(=O)CNC(=O)[C@H](Cc1ccccc1)NC(=O)[C@H](CC(N)=O)NC(=O)[C@@H]1CCCN1C(=O)[C@H](CO)NC(=O)[C@H](CO)NC(=O)[C@H](Cc1c[nH]cn1)NC(=O)[C@H](CCCNC(=N)N)NC(=O)[C@H](CC(C)C)NC(=O)[C@H](Cc1ccccc1)NC(=O)[C@H](CC(N)=O)NC(=O)[C@H](C)NC(=O)[C@H](CC(C)C)NC(=O)[C@H](CCCNC(=N)N)NC(=O)[C@H](CCC(N)=O)NC(=O)[C@@H](NC(=O)[C@H](C)NC(=O)[C@@H]1CSSC[C@H](NC(=O)[C@H](CCCCN)NC(=O)CC[C@H](NC(=O)CCCCCCCCCCCCCCCCCCC(=O)O)C(=O)O)C(=O)N[C@@H](CC(N)=O)C(=O)N[C@@H]([C@@H](C)O)C(=O)N[C@@H](C)C(=O)N[C@@H]([C@@H](C)O)C(=O)N1)[C@@H](C)O)C(=O)N1CCC[C@H]1C(=O)N[C@@H](CO)C(=O)N[C@@H](CO)C(=O)N[C@H](C(=O)N1CCC[C@H]1C(=O)N[C@H](C(=O)NCC(=O)N[C@@H](CO)C(=O)N[C@@H](CCC(=O)O)C(=O)N[C@H](C(=O)N[C@@H](Cc1ccc(O)cc1)C(N)=O)[C@@H](C)O)C(C)C)[C@@H](C)O [Example 28] ({C20 diacid-γGlu}-KCNTATCATQRLANFLRHSSPNFGAIPSSTPVGSETY-NH2; disulfide 2-7 (inferred))
≥ 200,≥ 200,≥ 200,≥ 200,≥ 200,≥ 200,≥ 200,≥ 200,3.61,0.528,CC[C@H](C)[C@H](NC(=O)[C@H](C)NC(=O)CNC(=O)[C@H](Cc1ccccc1)NC(=O)[C@H](CC(N)=O)NC(=O)[C@@H]1CCCN1C(=O)[C@H](CO)NC(=O)[C@H](CO)NC(=O)[C@H](Cc1c[nH]cn1)NC(=O)[C@H](CCCNC(=N)N)NC(=O)[C@H](CC(C)C)NC(=O)[C@H](Cc1ccccc1)NC(=O)[C@H](CCC(=O)O)NC(=O)[C@H](C)NC(=O)[C@H](CC(C)C)NC(=O)[C@H](CCCNC(=N)N)NC(=O)[C@H](CCC(N)=O)NC(=O)[C@@H](NC(=O)[C@H](C)NC(=O)[C@@H]1CSSC[C@H](NC(=O)[C@H](CCCCN)NC(=O)CC[C@H](NC(=O)CCCCCCCCCCCCCCCCCCC(=O)O)C(=O)O)C(=O)N[C@@H](CC(N)=O)C(=O)N[C@@H]([C@@H](C)O)C(=O)N[C@@H](C)C(=O)N[C@@H]([C@@H](C)O)C(=O)N1)[C@@H](C)O)C(=O)N[C@@H](CC(C)C)C(=O)N1CCC[C@H]1C(=O)N[C@@H](CO)C(=O)N[C@H](C(=O)N[C@@H](CC(N)=O)C(=O)N[C@H](C(=O)NCC(=O)N[C@@H](CO)C(=O)N[C@@H](CCC(=O)O)C(=O)N[C@H](C(=O)N[C@@H](Cc1ccc(O)cc1)C(N)=O)[C@@H](C)O)C(C)C)[C@@H](C)O [Example 33] ({C20 diacid-γGlu}-KCNTATCATQRLAEFLRHSSPNFGAILPSTNVGSETY-NH2; disulfide 2-7)
≥ 200,≥ 200,≥ 200,≥ 200,≥ 200,≥ 200,≥ 200,≥ 200,48.7,5.46,CC[C@H](C)[C@H](NC(=O)[C@H](C)NC(=O)CNC(=O)[C@H](Cc1ccccc1)NC(=O)[C@H](CC(N)=O)NC(=O)[C@@H]1CCCN1C(=O)[C@H](CO)NC(=O)[C@H](CO)NC(=O)[C@H](Cc1c[nH]cn1)NC(=O)[C@H](CCCNC(=N)N)NC(=O)[C@H](CC(C)C)NC(=O)[C@H](Cc1ccccc1)NC(=O)[C@H](CC(N)=O)NC(=O)[C@H](C)NC(=O)[C@H](CC(C)C)NC(=O)[C@H](CCCNC(=N)N)NC(=O)[C@H](CCC(N)=O)NC(=O)[C@@H](NC(=O)[C@H](C)NC(=O)[C@@H]1CSSC[C@H](NC(=O)[C@@H](N)CCCCNC(=O)CC[C@H](NC(=O)CCCCCCCCCCCCCCCCCCC(=O)O)C(=O)O)C(=O)N[C@@H](CC(N)=O)C(=O)N[C@@H]([C@@H](C)O)C(=O)N[C@@H](C)C(=O)N[C@@H]([C@@H](C)O)C(=O)N1)[C@@H](C)O)C(=O)N1CCC[C@H]1C(=O)N[C@@H](CO)C(=O)N[C@@H](CO)C(=O)N[C@H](C(=O)N[C@@H](CC(N)=O)C(=O)N[C@H](C(=O)NCC(=O)N[C@@H](CO)C(=O)N[C@@H](CCCCN)C(=O)N[C@H](C(=O)N[C@@H](Cc1ccc(O)cc1)C(N)=O)[C@@H](C)O)C(C)C)[C@@H](C)O [Example 35] (H-K([γGlu-C20 diacid])CNTATCATQRLANFLRHSSPNFGAIPSSTNVGSKTY-NH2; disulfide 2-7; N-terminus assumed)
≥ 200,≥ 200,≥ 200,≥ 200,≥ 200,≥ 200,≥ 200,≥ 200,2.18,0.372,CC[C@H](C)[C@H](NC(=O)[C@H](C)NC(=O)CNC(=O)[C@H](Cc1ccccc1)NC(=O)[C@H](CC(N)=O)NC(=O)[C@@H]1CCCN1C(=O)[C@H](CO)NC(=O)[C@H](CO)NC(=O)[C@H](Cc1c[nH]cn1)NC(=O)[C@H](CCCNC(=N)N)NC(=O)[C@H](CC(C)C)NC(=O)[C@H](Cc1ccccc1)NC(=O)[C@H](CCC(=O)O)NC(=O)[C@H](C)NC(=O)[C@H](CC(C)C)NC(=O)[C@H](CCCNC(=N)N)NC(=O)[C@H](CCC(N)=O)NC(=O)[C@@H](NC(=O)[C@H](C)NC(=O)[C@@H]1CSSC[C@H](NC(=O)[C@H](CCCCN)NC(=O)CC[C@H](NC(=O)CCCCCCCCCCCCCCCCCCC(=O)O)C(=O)O)C(=O)N[C@@H](CC(N)=O)C(=O)N[C@@H]([C@@H](C)O)C(=O)N[C@@H](C)C(=O)N[C@@H]([C@@H](C)O)C(=O)N1)[C@@H](C)O)C(=O)N1CCC[C@H]1C(=O)N[C@@H](CO)C(=O)N1CCC[C@H]1C(=O)N[C@H](C(=O)N[C@@H](CC(N)=O)C(=O)N[C@H](C(=O)NCC(=O)N[C@@H](CO)C(=O)N[C@@H](CC(N)=O)C(=O)N[C@H](C(=O)N[C@@H](Cc1ccc(O)cc1)C(N)=O)[C@@H](C)O)C(C)C)[C@@H](C)O [Example 37] ({C20 diacid-γGlu}-KCNTATCATQRLAEFLRHSSPNFGAIPSPTNVGSNTY-NH2; disulfide 2-7 (inferred))
